Test results from PubChem BioAssay (NCI).
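Growth conditions: 96-well plates. Treatment: test compound, 48 hours, 5 concentrations. Analysis: linear interpolation between bracketing concentrations; unreached endpoints set to highest concentration. TGI: total growth inhibition.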

How the values were obtained:
Assay in all cases: NCI anticancer screen, dose series, 48 h
RXF 393 renal = test system: RXF 393 renal
IGROV1 ovarian = test system: IGROV1 ovarian
ACHN renal = test system: ACHN renal
SF-539 CNS = test system: SF-539 CNS
SK-MEL-2 melanoma = test system: SK-MEL-2 melanoma
OVCAR-5 ovarian = test system: OVCAR-5 ovarian
SNB-75 CNS = test system: SNB-75 CNS
NCI-H460 lung = test system: NCI-H460 lung
SK-OV-3 ovarian = test system: SK-OV-3 ovarian
SNB-19 CNS = test system: SNB-19 CNS
HCC-2998 colon = test system: HCC-2998 colon
CCRF-CEM leukemia = test system: CCRF-CEM leukemia
SW-620 colon = test system: SW-620 colon
HT29 colon = test system: HT29 colon
K-562 leukemia = test system: K-562 leukemia
MDA-MB-435 = test system: MDA-MB-435
MDA-N = test system: MDA-N
786-0 renal = test system: 786-0 renal
U251 CNS = test system: U251 CNS
A498 renal = test system: A498 renal

| Compound | TGI (RXF 393 renal) [µM] | TGI (IGROV1 ovarian) [µM] | TGI (ACHN renal) [µM] | TGI (SF-539 CNS) [µM] | TGI (SK-MEL-2 melanoma) [µM] | TGI (OVCAR-5 ovarian) [µM] | TGI (SNB-75 CNS) [µM] | TGI (NCI-H460 lung) [µM] | TGI (SK-OV-3 ovarian) [µM] | TGI (SNB-19 CNS) [µM] | TGI (HCC-2998 colon) [µM] | TGI (CCRF-CEM leukemia) [µM] | TGI (SW-620 colon) [µM] | TGI (HT29 colon) [µM] | TGI (K-562 leukemia) [µM] | TGI (MDA-MB-435) [µM] | TGI (MDA-N) [µM] | TGI (786-0 renal) [µM] | TGI (U251 CNS) [µM] | TGI (A498 renal) [µM] |
| --- | --- | --- | --- | --- | --- | --- | --- | --- | --- | --- | --- | --- | --- | --- | --- | --- | --- | --- | --- | --- |
| CC(=O)N1C(c2[nH]c3ccccc3c2-c2ccccc2)CCN1c1ccccc1 (stereo not given) | > 10 | > 10 | > 10 | > 10 | > 10 | > 10 | > 10 | > 10 | > 10 | > 10 | > 10 | > 10 | > 10 | > 10 | > 10 | > 10 | > 10 | > 10 |  |  |
| CCNCCNc1c2ccccc2nc2ccccc12 | 3.31 | 9.82 | 1.37 | 2.21 | 3.63 | 7.62 | 3.52 | 1.54 | 12.2 | 4.69 | 1.09 | 8.63 | 2.84 | > 100 | 5.66 | 2.59 | 2.81 | 13.4 |  |  |
| C[n+]1c2ccccc2c(C(=O)Nc2ccc(S(=O)(=O)Nc3ccnn3-c3ccccc3)cc2)c2ccccc21 |  | > 100 | > 100 | > 100 | > 100 | > 100 | > 100 | > 100 | > 100 | > 100 | > 100 |  | > 100 | > 100 | > 100 | > 100 | > 100 | > 100 | > 100 |  |
| N=c1oc2cc(O)ccc2cc1C(=O)NCc1ccccc1 | 85 | > 100 | > 100 | 63.3 | 34.2 | > 100 | 43.8 | > 100 | 70 | 96.9 |  | 45 | 81.6 | > 100 | 28.2 | 58.3 | 49.7 | > 100 | > 100 |  |
| N=c1c2c(C(N)=O)cn(C3OC(CO)C(O)C3O)c2ncn1O (stereo not given) | 3.71 | > 100 | 0.311 | 2.02 | 2.33 | 1.3 | 4.85 | > 20.4 | > 36.3 | > 100 |  | 1.46 | 0.497 | 9.64 |  | 0.74 |  | 1.08 | 3.14 |  |
| Cc1csc(=S)n1OC(=O)NC1CCCCC1 | > 100 | > 100 | > 100 | > 100 | > 100 |  | > 100 | > 100 | > 100 | > 100 | > 100 | > 28.2 | > 100 | > 95.5 | > 100 |  |  | > 50 | > 100 | > 100 |
| N=c1oc2c(Cl)cc(Cl)cc2cc1C(=O)Nc1cccc2ccccc12 | 76.8 | 40.6 | 11.2 |  |  | > 100 | 10.9 | 62.1 | > 77.6 | > 78.2 | > 59.6 | 14.4 | 27.1 | > 100 | > 53.3 | > 100 | > 100 | 12.8 | 7.01 | 23.7 |
| COc1cc(/C=C/C(=O)c2ccc(NS(=O)(=O)c3cc([N+](=O)[O-])ccc3C)cc2)cc(OC)c1OC | 11.1 | 17.1 | 15.9 | 6.3 | 8.47 | 11.8 | 14.2 |  | 15.4 | 14.1 |  | 7.48 | 25.5 | 14.4 | 10.9 | 16.3 | 13 | 7.14 | 13.7 |  |
| COC(=O)C(CC12CC3CC(CC(C3)C1)C2)NC(=O)C(N)CC(=O)O (stereo not given) | > 100 | > 100 | > 100 |  | > 100 | > 100 | > 100 | > 100 | > 100 | > 100 | > 100 | > 100 | > 100 | > 100 | > 100 | > 100 | > 100 | > 100 | > 100 |  |
| O=C1C(Br)=CC2(C=C1Br)CCNC1=C2C(=O)c2ccccc2C1=O |  | 83.6 | 27.9 |  | 34.7 |  | > 100 |  | > 100 |  |  | 19 | 87.8 | > 100 | 48.4 |  |  | 29.5 |  |  |
| CCN(CC)CCCNc1nc(=O)[nH]c(C)c1C(=O)Nc1cccc2cc3ccccc3cc12 | > 100 | > 100 | > 100 | > 100 | > 100 | > 100 | > 100 |  | > 100 | > 100 | > 100 | > 100 | > 100 | > 100 | > 100 | > 100 | > 100 | > 100 | > 100 |  |
| CCOC(=O)c1ccc(N=C2C(=S)N(c3ccc(C(=O)OCC)cc3)C(=N)N2/N=C/c2ccccc2)cc1 | 19.3 | > 100 |  | 51.2 | > 100 | 40.5 |  | > 100 | 59 | 44.5 | 58 |  |  | > 100 | > 100 |  | 33 | 30 |  |  |
| O=C(c1cccc2ccccc12)C1(Br)S(=O)(=O)OCCOS1(=O)=O |  |  | > 100 |  | > 100 | > 100 |  | > 100 |  | > 100 | > 100 |  |  | > 100 |  | > 100 | > 100 | > 100 | > 100 |  |
| CCOC(=O)c1c(N)sc2c1C(C(=O)OCC)CC2 (stereo not given) | > 100 | > 100 | > 100 |  | > 100 | > 100 | > 100 | > 100 |  | > 100 | > 100 |  | > 100 | > 100 | > 100 |  | > 100 | > 100 | > 100 | 82.1 |
